Data from patent US20230331673A1, “COMPOSITION OF COMPOUNDS THAT MODULATE CELL METABOLISM AND METHODS OF USE” (CRESCENTA BIOSCIENCES, priority 2020, published 2023).

Test system: differentiated 3T3-L1 mouse adipocyte cells
Test: Adipocyte glucose consumption in differentiated 3T3-L1 mouse adipocyte cells (loss of glucose from medium, colorimetric)
Format: cell-based
Conditions: compound 10 μM, 22 to 24 hours, differentiated 3T3-L1 adipocytes, compound/DMSO, read-out: Glucose consumption (fold change) Mean
Procedure: Activity of compounds on adipocyte glucose consumption was tested in differentiated 3T3-L1 mouse adipocyte cells. 3T3-L1 preadipocytes (ATCC) were routinely cultured in a growth medium composed of DMEM high-glucose (Sigma), 10% FBS (Gibco), 10 U/ml penicillin and 10 μg/ml streptomycin (P/S; Gibco). To induce adipogenic differentiation, a confluent layer of 3T3-L1 cells were incubated with the growth medium containing 2 μM rosiglitazone, 1 μM dexamethasone, 500 μM IBMX, and 1 μg/ml insulin (Sigma). Forty-eight (48) hours later (on day 2) and on days 4 and 6, medium of the cells was replaced with fresh medium containing 1 μg/ml insulin. On days 8 and 10, the medium was refreshed with regular growth medium and addition of insulin was omitted. On day 11 or 12, medium of the cells were replaced with fresh medium containing either the indicated compounds (10 μM) or the vehicle in which the compounds were dissolved (DMSO). The final concentration of DMSO was 0.1% (v/v). Growth medium containing 0.1% DMSO was incubated in culture wells containing no cells and used as control. Twenty-two to 24 hours later, medium was harvested and subjected to centrifugation at 10,000 g for 5 min. Glucose concentration in the supernatants was determined using a colorimetric assay (Glucose Assay Kit I, Eton Biosciences). Glucose consumption in compound and vehicle treated cells was measured as loss of glucose from the culture medium and represented as mean fold change (compound/DMSO) t standard deviation (SD).

**Q.** For `CCCCC1CCCc2c(n(Cc3cccc(OC)c3)c3c(C(=O)O)cccc23)C1` (centres unmarked) [7-butyl-5-[(3-methoxyphenyl)methyl]-5H,6H,7H,8H,9H,10H-cyclohepta[b]indole-4-carboxylic acid], which fold induction at 10 µM is on record?
**A.** Its fold induction at 10 µM is 1.23.

**Q.** For `CCCCC1CCCc2c(n(Cc3cccc(C)c3)c3c(C(=O)O)cccc23)C1` (centres unmarked) [7-butyl-5-[(3-methylphenyl)methyl]-5H,6H,7H,8H,9H,10H-cyclohepta[b]indole-4-carboxylic acid], which fold induction at 10 µM is on record?
**A.** The fold induction at 10 µM was 1.32.

**Q.** With `CCCCC1CCCc2c(n(Cc3ccc(C(N)=O)cc3)c3c(C(=O)O)cccc23)C1` (centres unmarked) [7-butyl-5-[(4-carbamoylphenyl)methyl]-5H,6H,7H,8H,9H,10H-cyclohepta[b]indole-4-carboxylic acid] as the compound, how does the fold induction at 10 µM read?
**A.** The fold induction at 10 µM was 1.13.

**Q.** `CCCCC1CCCc2c(n(Cc3ccc(C)cc3)c3c(C(=O)O)cccc23)C1` (centres unmarked) [7-butyl-5-[(4-methylphenyl)methyl]-5H,6H,7H,8H,9H,10H-cyclohepta[b]indole-4-carboxylic acid] was tested. Which fold induction at 10 µM did it give?
**A.** Its fold induction at 10 µM is 1.27.

**Q.** With `CCCCC1CCCc2c(n(Cc3cccnc3)c3c(C(=O)O)cccc23)C1` (centres unmarked) [7-butyl-5-[(pyridin-3-yl)methyl]-5H,6H,7H,8H,9H,10H-cyclohepta[b]indole-4-carboxylic acid] as the compound, how does the fold induction at 10 µM read?
**A.** Its fold induction at 10 µM is 1.21.

**Q.** How did the fold induction at 10 µM turn out when `CCCCCCC1CCCc2c(n(Cc3ccnc(OC)c3)c3c(C(=O)O)cccc23)C1` (centres unmarked) [7-hexyl-5-[(2-methoxypyridin-4-yl)methyl]-5H,6H,7H,8H,9H,10H-cyclohepta[b]indole-4-carboxylic acid] was run?
**A.** The fold induction at 10 µM was 1.12.

**Q.** How did the fold induction at 10 µM turn out when `CCCCCCC1CCCc2c(n(Cc3ccccc3C)c3c(C(=O)O)cccc23)C1` (centres unmarked) [7-hexyl-5-[(2-methylphenyl)methyl]-5H,6H,7H,8H,9H,10H-cyclohepta[b]indole-4-carboxylic acid] was run?
**A.** The fold induction at 10 µM was 1.

**Q.** With `CCCCCCC1CCCc2c(n(Cc3cccc(C)c3)c3c(C(=O)O)cccc23)C1` (centres unmarked) [7-hexyl-5-[(3-methylphenyl)methyl]-5H,6H,7H,8H,9H,10H-cyclohepta[b]indole-4-carboxylic acid] as the compound, how does the fold induction at 10 µM read?
**A.** The fold induction at 10 µM was 1.13.

**Q.** `CCCCCCC1CCCc2c(n(Cc3ccc(C)cc3)c3c(C(=O)O)cccc23)C1` (centres unmarked) [7-hexyl-5-[(4-methylphenyl)methyl]-5H,6H,7H,8H,9H,10H-cyclohepta[b]indole-4-carboxylic acid] was tested. Which fold induction at 10 µM did it give?
**A.** Its fold induction at 10 µM is 1.05.

**Q.** `CCCCCCC1CCCc2c(n(Cc3cccnc3)c3c(C(=O)O)cccc23)C1` (centres unmarked) [7-hexyl-5-[(pyridin-3-yl)methyl]-5H,6H,7H,8H,9H,10H-cyclohepta[b]indole-4-carboxylic acid] was tested. Which fold induction at 10 µM did it give?
**A.** The fold induction at 10 µM was 1.14.

**Q.** Which fold induction at 10 µM does the source give for `CCCCCCC1CCc2c(n(Cc3ccccc3C#N)c3c(C(=O)O)cccc23)C1` (centres unmarked) [9-[(2-cyanophenyl)methyl]-2-hexyl-2,3,4,9-tetrahydro-1H-carbazole-8-carboxylic acid] here?
**A.** Its fold induction at 10 µM is 1.13.

**Q.** `CCCCCCC1CCc2c(n(Cc3ccccc3F)c3c(C(=O)O)cccc23)C1` (centres unmarked) [9-[(2-fluorophenyl)methyl]-2-hexyl-2,3,4,9-tetrahydro-1H-carbazole-8-carboxylic acid] was tested. Which fold induction at 10 µM did it give?
**A.** Its fold induction at 10 µM is 1.24.

**Q.** Which fold induction at 10 µM does the source give for `CCCCCOC1CCCc2c1n(Cc1cccc(C(N)=O)c1)c1c(C(=O)O)cccc21` (centres unmarked) [9-[(3-carbamoylphenyl)methyl]-1-(pentyloxy)-2,3,4,9-tetrahydro-1H-carbazole-8-carboxylic acid] here?
**A.** Its fold induction at 10 µM is 1.09.

**Q.** How did the fold induction at 10 µM turn out when `CCC1CCCc2c1n(Cc1cccc(C(N)=O)c1)c1c(C(=O)O)cccc21` (centres unmarked) [9-[(3-carbamoylphenyl)methyl]-1-ethyl-2,3,4,9-tetrahydro-1H-carbazole-8-carboxylic acid] was run?
**A.** The fold induction at 10 µM was 0.94.

**Q.** Which fold induction at 10 µM does the source give for `CCCOC1CCCc2c1n(Cc1cccc(C(N)=O)c1)c1c(C(=O)O)cccc21` (centres unmarked) [9-[(3-carbamoylphenyl)methyl]-1-propoxy-2,3,4,9-tetrahydro-1H-carbazole-8-carboxylic acid] here?
**A.** The fold induction at 10 µM was 1.03.

**Q.** For `CCC1CCc2c(n(Cc3cccc(C(N)=O)c3)c3c(C(=O)O)cccc23)C1` (centres unmarked) [9-[(3-carbamoylphenyl)methyl]-2-ethyl-2,3,4,9-tetrahydro-1H-carbazole-8-carboxylic acid], which fold induction at 10 µM is on record?
**A.** Its fold induction at 10 µM is 1.06.

**Q.** Which fold induction at 10 µM does the source give for `CCCCCCC1CCc2c(n(Cc3cccc(C(N)=O)c3)c3c(C(=O)O)cccc23)C1` (centres unmarked) [9-[(3-carbamoylphenyl)methyl]-2-hexyl-2,3,4,9-tetrahydro-1H-carbazole-8-carboxylic acid] here?
**A.** The fold induction at 10 µM was 1.13.

**Q.** Which fold induction at 10 µM does the source give for `CCCCCC1CCc2c(n(Cc3cccc(C(N)=O)c3)c3c(C(=O)O)cccc23)C1` (centres unmarked) [9-[(3-carbamoylphenyl)methyl]-2-pentyl-2,3,4,9-tetrahydro-1H-carbazole-8-carboxylic acid] here?
**A.** The fold induction at 10 µM was 1.13.

**Q.** With `CCCC1CCc2c(n(Cc3cccc(C(N)=O)c3)c3c(C(=O)O)cccc23)C1` (centres unmarked) [9-[(3-carbamoylphenyl)methyl]-2-propyl-2,3,4,9-tetrahydro-1H-carbazole-8-carboxylic acid] as the compound, how does the fold induction at 10 µM read?
**A.** The fold induction at 10 µM was 1.09.

**Q.** With `CCC1CCc2c(c3cccc(C(=O)O)c3n2Cc2cccc(C(N)=O)c2)C1` (centres unmarked) [9-[(3-carbamoylphenyl)methyl]-3-ethyl-2,3,4,9-tetrahydro-1H-carbazole-8-carboxylic acid] as the compound, how does the fold induction at 10 µM read?
**A.** Its fold induction at 10 µM is 1.1.

**Q.** How did the fold induction at 10 µM turn out when `CCCCCC1CCc2c(c3cccc(C(=O)O)c3n2Cc2cccc(C(N)=O)c2)C1` (centres unmarked) [9-[(3-carbamoylphenyl)methyl]-3-pentyl-2,3,4,9-tetrahydro-1H-carbazole-8-carboxylic acid] was run?
**A.** Its fold induction at 10 µM is 1.08.

**Q.** Which fold induction at 10 µM does the source give for `CCCC1CCc2c(c3cccc(C(=O)O)c3n2Cc2cccc(C(N)=O)c2)C1` (centres unmarked) [9-[(3-carbamoylphenyl)methyl]-3-propyl-2,3,4,9-tetrahydro-1H-carbazole-8-carboxylic acid] here?
**A.** Its fold induction at 10 µM is 1.1.

**Q.** Which fold induction at 10 µM does the source give for `CCC1CCCc2c1c1cccc(C(=O)O)c1n2Cc1cccc(C(N)=O)c1` (centres unmarked) [9-[(3-carbamoylphenyl)methyl]-4-ethyl-2,3,4,9-tetrahydro-1H-carbazole-8-carboxylic acid] here?
**A.** Its fold induction at 10 µM is 1.21.

**Q.** Which fold induction at 10 µM does the source give for `CCCCCC1CCCc2c1c1cccc(C(=O)O)c1n2Cc1cccc(C(N)=O)c1` (centres unmarked) [9-[(3-carbamoylphenyl)methyl]-4-pentyl-2,3,4,9-tetrahydro-1H-carbazole-8-carboxylic acid] here?
**A.** The fold induction at 10 µM was 1.12.

**Q.** For `CCCC1CCCc2c1c1cccc(C(=O)O)c1n2Cc1cccc(C(N)=O)c1` (centres unmarked) [9-[(3-carbamoylphenyl)methyl]-4-propyl-2,3,4,9-tetrahydro-1H-carbazole-8-carboxylic acid], which fold induction at 10 µM is on record?
**A.** The fold induction at 10 µM was 1.04.

**Q.** Which fold induction at 10 µM does the source give for `CCC1CCCc2c1n(Cc1cccc(C(=O)O)c1)c1c(C(=O)O)cccc21` (centres unmarked) [9-[(3-carboxyphenyl)methyl]-1-ethyl-2,3,4,9-tetrahydro-1H-carbazole-8-carboxylic acid] here?
**A.** Its fold induction at 10 µM is 1.09.

**Q.** For `CCC1CCc2c(n(Cc3cccc(C(=O)O)c3)c3c(C(=O)O)cccc23)C1` (centres unmarked) [9-[(3-carboxyphenyl)methyl]-2-ethyl-2,3,4,9-tetrahydro-1H-carbazole-8-carboxylic acid], which fold induction at 10 µM is on record?
**A.** Its fold induction at 10 µM is 1.11.

**Q.** Which fold induction at 10 µM does the source give for `CCC1CCCc2c1c1cccc(C(=O)O)c1n2Cc1cccc(C(=O)O)c1` (centres unmarked) [9-[(3-carboxyphenyl)methyl]-4-ethyl-2,3,4,9-tetrahydro-1H-carbazole-8-carboxylic acid] here?
**A.** The fold induction at 10 µM was 1.06.

**Q.** `CCCCCOC1CCCc2c1n(Cc1cccc(C#N)c1)c1c(C(=O)O)cccc21` (centres unmarked) [9-[(3-cyanophenyl)methyl]-1-(pentyloxy)-2,3,4,9-tetrahydro-1H-carbazole-8-carboxylic acid] was tested. Which fold induction at 10 µM did it give?
**A.** The fold induction at 10 µM was 1.19.

**Q.** How did the fold induction at 10 µM turn out when `CCC1CCCc2c1n(Cc1cccc(C#N)c1)c1c(C(=O)O)cccc21` (centres unmarked) [9-[(3-cyanophenyl)methyl]-1-ethyl-2,3,4,9-tetrahydro-1H-carbazole-8-carboxylic acid] was run?
**A.** The fold induction at 10 µM was 1.11.

**Q.** With `CCCCCCC1CCc2c(n(Cc3cccc(C#N)c3)c3c(C(=O)O)cccc23)C1` (centres unmarked) [9-[(3-cyanophenyl)methyl]-2-hexyl-2,3,4,9-tetrahydro-1H-carbazole-8-carboxylic acid] as the compound, how does the fold induction at 10 µM read?
**A.** The fold induction at 10 µM was 1.16.

**Q.** For `CCCCCC1CCc2c(n(Cc3cccc(C#N)c3)c3c(C(=O)O)cccc23)C1` (centres unmarked) [9-[(3-cyanophenyl)methyl]-2-pentyl-2,3,4,9-tetrahydro-1H-carbazole-8-carboxylic acid], which fold induction at 10 µM is on record?
**A.** Its fold induction at 10 µM is 1.34.

**Q.** How did the fold induction at 10 µM turn out when `CCCC1CCc2c(n(Cc3cccc(C#N)c3)c3c(C(=O)O)cccc23)C1` (centres unmarked) [9-[(3-cyanophenyl)methyl]-2-propyl-2,3,4,9-tetrahydro-1H-carbazole-8-carboxylic acid] was run?
**A.** Its fold induction at 10 µM is 1.21.

**Q.** `CCC1CCc2c(c3cccc(C(=O)O)c3n2Cc2cccc(C#N)c2)C1` (centres unmarked) [9-[(3-cyanophenyl)methyl]-3-ethyl-2,3,4,9-tetrahydro-1H-carbazole-8-carboxylic acid] was tested. Which fold induction at 10 µM did it give?
**A.** Its fold induction at 10 µM is 1.08.

**Q.** `CCCCCC1CCc2c(c3cccc(C(=O)O)c3n2Cc2cccc(C#N)c2)C1` (centres unmarked) [9-[(3-cyanophenyl)methyl]-3-pentyl-2,3,4,9-tetrahydro-1H-carbazole-8-carboxylic acid] was tested. Which fold induction at 10 µM did it give?
**A.** Its fold induction at 10 µM is 1.17.

**Q.** `CCCC1CCc2c(c3cccc(C(=O)O)c3n2Cc2cccc(C#N)c2)C1` (centres unmarked) [9-[(3-cyanophenyl)methyl]-3-propyl-2,3,4,9-tetrahydro-1H-carbazole-8-carboxylic acid] was tested. Which fold induction at 10 µM did it give?
**A.** Its fold induction at 10 µM is 1.2.

**Q.** `N#Cc1cccc(Cn2c3c(c4cccc(C(=O)O)c42)C(CCc2ccccc2)CCC3)c1` (centres unmarked) [9-[(3-cyanophenyl)methyl]-4-(2-phenylethyl)-2,3,4,9-tetrahydro-1H-carbazole-8-carboxylic acid] was tested. Which fold induction at 10 µM did it give?
**A.** Its fold induction at 10 µM is 1.1.

**Q.** How did the fold induction at 10 µM turn out when `CCCCCC1CCCc2c1c1cccc(C(=O)O)c1n2Cc1cccc(C#N)c1` (centres unmarked) [9-[(3-cyanophenyl)methyl]-4-pentyl-2,3,4,9-tetrahydro-1H-carbazole-8-carboxylic acid] was run?
**A.** Its fold induction at 10 µM is 1.13.
